Data on one compound can be found in patent US11008325B2, “Inhibitors of cancer invasion, attachment, and/or metastasis” (VIRGINIA COMMONWEALTH UNIVERSITY, priority 2016, dated 2021).

“Also recorded” adds a separate entry of the source.

For one data set, the system named is U1242-Luc cells. Description: intracranial U1242-Luc tumors, PDZ1i with or without radiation. It is filed as in vivo, nude mice. As for the experimental part: FIGS. 14A-14F. PDZ1i treatment combined with radiation in an in vivo model of GBM. FIG. 14A. U1242-luc cells were injected intracranially into nude mice. After 7 days mice were randomized to 4 groups, and mice receiving therapy were treated on days 11-14 as pictured. FIG. 14B. Kaplan-Meier survival curves for each treatment group. Median survival as listed. Two brain tissue samples were isolated for each group, sectioned, and H and E staining is shown. FIG. 14C, DMSO treated mice, FIG. 14D, PDZ1i treated mice, FIG. 14E, mice treated with radiation and DMSO; FIG. 14F, mice treated with radiation and PDZ1i.
PDZ1i combined with radiation extends survival and reduces GBM invasion in vivo. We next investigated the combination of PDZ1i with radiotherapy in vivo. U1242-Luc cells were injected intracranially under anesthesia and formed tumors, confirmed by imaging at 7 d post-injection. At this point, mice were randomized to 4 groups: DMSO treatment, PDZ1i treatment (30 mg/kg), DMSO+IR, and PDZ1i+IR. Treatment began on 11 d post-injection and mice receiving radiation were treated with 2.5 Gy for 4 consecutive d. PDZ1i was administered 2 h prior to radiation treatment on each of the 4 treatment d (FIG. 14A). […] To investigate this, brain tissue sections were collected and H & E stains were analyzed. […]

In data set [1] the test system is various types of cancer cells including PC. Description: modified Boyden Chamber invasion assay. It is filed as cell-based, human. Particulars: pre-treatment, dose as indicated (20 μM or 40 μM). The protocol:
FIGS. 17A-17H. Effect of PDZ1i on invasion, MDA-9/IGF-R1 interaction and IGF-R1, STAT3 and SRC phosphorylation. FIG. 17A) Different cancer cells (25,000 cells/well) from various anatomic origins were pre-treated with either DMSO (vehicle) or PDZ1i (dose as indicated) and invasion ability was assayed using modified Boyden Chamber according to the manufacturer's instructions. Photomicrographs were taken at 10× magnification and quantification of the results of three independent experiments is provided in the graphs. The data presents mean±S.D. B) The designated cells were treated with DMSO or PDZ1i and invasion properties were determined using a modified Boyden Chamber assay (BD bioscience). RWPE-1 mda-9: mda-9 transiently overexpressing cell line. […] FIG. 17E) Cells were growth starved for 24 h and treated with either DMSO or PDZ1i (dose indicated in μM) for 6 h. Cells were treated with human recombinant IGFBP-2 (hIGFBP-2, 10 ng/ml) for 2 h, lysates were prepared and western blot analysis was conducted with specific antibodies. […] Cells were treated with human recombinant IL-6 (hIGFBP-2, 1 ng/ml) for 2 h, cell lysates were prepared and analyzed by western blotting. […]
Boyden chamber assays were done to investigate the invasive properties of cancer cells^26, 27. […] After 18 h, invasive cells were photographed and analyzed.

The target in data set [2] is T1, MDA-9/Syntenin and c-Src interactions (Homo sapiens, UniProt O00560).
T1 construct: endogenous in cells; host or cells: C8161.9 melanoma cells
T1 sequence (O00560 2-298 limits assumed): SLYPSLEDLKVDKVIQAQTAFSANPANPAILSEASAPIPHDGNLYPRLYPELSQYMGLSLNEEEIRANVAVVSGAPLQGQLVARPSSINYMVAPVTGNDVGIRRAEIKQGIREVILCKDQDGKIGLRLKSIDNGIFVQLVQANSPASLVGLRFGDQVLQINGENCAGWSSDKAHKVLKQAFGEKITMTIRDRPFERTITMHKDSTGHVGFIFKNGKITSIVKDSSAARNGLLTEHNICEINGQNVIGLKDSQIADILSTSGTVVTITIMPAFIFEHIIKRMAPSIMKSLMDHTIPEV
T1 sequence (P12931 2-536 partner limits assumed): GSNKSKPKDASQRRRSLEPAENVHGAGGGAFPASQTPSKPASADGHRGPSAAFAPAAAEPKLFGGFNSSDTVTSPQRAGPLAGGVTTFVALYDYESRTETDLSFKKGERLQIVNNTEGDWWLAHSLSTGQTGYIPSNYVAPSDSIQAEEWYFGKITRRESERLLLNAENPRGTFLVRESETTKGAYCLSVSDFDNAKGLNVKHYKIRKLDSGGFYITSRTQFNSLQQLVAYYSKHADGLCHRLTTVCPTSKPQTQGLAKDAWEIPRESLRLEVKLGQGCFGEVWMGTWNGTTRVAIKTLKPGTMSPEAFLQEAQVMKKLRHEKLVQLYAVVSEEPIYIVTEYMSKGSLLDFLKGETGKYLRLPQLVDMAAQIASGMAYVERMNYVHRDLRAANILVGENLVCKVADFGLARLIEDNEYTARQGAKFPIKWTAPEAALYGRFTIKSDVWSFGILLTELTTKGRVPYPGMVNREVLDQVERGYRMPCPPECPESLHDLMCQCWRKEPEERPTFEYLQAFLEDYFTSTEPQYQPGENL
The experiment in a line: co-immunoprecipitation in C8161.9 cells. The format is cell-based. As for the experimental part: FIG. 54. Effects of PDZ1in (113B7) on MDA-9/Syntenin and c-Src interactions. C8161.9 cells were pre-treated with either DMSO or a dose of 113B7 (as indicated) and re-plated onto fibronectin-coated plates. After 30 minutes, cell lysates were immunoprecipitated and immuneblotted with the indicated antibodies. IgG, immunoglobulin.
Another fundamental issue that we will address as part of the proposed hit-to-lead optimization process is the specificity of the binding of 113B7 to the PDZ1 domain of MDA-9/Syntenin. […] To determine if the PDZin molecule alters physical binding we performed co-immunoprecipitation analysis with c-Src and MDA-9/Syntenin in the presence or absence of 113B7 (FIG. 54). In the case of 113B7, which binds to PDZ1 and the interdomain of MDA-9/Syntenin, no inhibition of c-Src binding was evident.

A short description of data set [3]: toxicity in vivo in pre-clinical animal models. Particulars: listed as PDZ1i.

Take `Cc1cc(NC(=O)c2nc3[nH]c4c(c(=O)n3n2)CCC4)c(C)cc1NC(=O)CCc1nnc(-c2ccccc2)o1` [113B7, N-(2,5-dimethyl-4-(3-(5-phenyl-1,3,4-oxadiazol-2-yl)propanamido)phenyl)-8-oxo-5,6,7,8-tetrahydro-4H-cyclopenta[d][1,2,4]triazolo[1,5-a]pyrimidine-2-carboxamide]: the average survival in the data set on U1242-Luc cells (PDZ1i 30 mg/kg 2 h prior to IR, 2.5 Gy for 4 consecutive d) was determined as 78.8 days; in the data set on U1242-Luc cells (PDZ1i 30 mg/kg alone), 54.7 days. Besides, the invasion result is “inhibited invasion in a dose-dependent manner; also recorded: significantly inhibited the invasion” in data set [1] and “significantly inhibited the invasion” in data set [1] (listed as PDZ1i). In addition, the “c-Src binding to MDA-9/Syntenin” value in data set [2] is listed as “no inhibition”. Also, the “toxicity / tolerability in vivo” value in data set [3] is “well-tolerated; also recorded: no apparent toxicity”.
